Patent US8598145B2, “Mitochondrially delivered anti-cancer compounds” (priority 2008, dated 2013)
Where two headings read alike, the source gives them in different places.

Columns and labels:
HL-1 = assay: MTT viability assay (IC50); format: cell-based, rat; settings: HL-1, ~60% confluency
Excerpt: (§1) The following cell lines used in this study were obtained from ATCC, unless specified otherwise: Human T lymphoma cells Jurkat, human mesothelioma cells Meso-I, MM-BI, Ist-Mes, Ist-Mes-2 (Pass, H. I. et al. Characteristics of nine newly derived mesothelioma cell lines. Ann. Thorac. Surg. 59, 835-844 (1995)), human breast cancer cells MCF-7 (erbB2-low) and MDA-MB-453 (erbB2-high), human colorectal cells HCT-116, human hepatocarcinoma cells Huh-7, mouse mesothelioma cells AE17 (Jackaman, C. et al. IL-2 intratumoral immunotherapy enhances CD8+ T cells that mediate destruction of tumor cells and tumor-associated vasculature: a novel mechanism for IL-2. J. Immunol. 171, […] (2003), human non-malignant mesothelial cells Met-5A, […] (Claycomb, W. C. et al. HL-1 cells: a cardiac muscle cell line that contracts and retains phenotypic characteristics of the adult cardiomyocyte. Proc. Natl. Acad. Sci. USA 95, 2979-2984 […]) and H9c2, and the human endothelial-like cells EAhy926 (Edgell, C. J., McDonald, C. C. & Graham, J. B. Permanent cell line expressing human factor VIII-related antigen established by hybridization. Proc. Natl. Acad. Sci. USA 80, 3734-3737 (1983)). Jurkat cells were grown in the RPMI medium while DMEM was used for other malignant cell lines and for Met-5A cells, supplemented with 10% FCS and antibiotics. HL-1 cells, maintained in fibronectin/gelatine-coated dishes, were grown in the Claycomb medium supplemented with noradrenalin (Claycomb, W. C. et al. HL-1 cells: a cardiac muscle cell line that contracts and retains phenotypic characteristics of the adult cardiomyocyte. Proc. Natl. Acad. Sci. USA 95, 2979-2984 […]), EAhy926 cells were grown in complete DMEM supplemented with HAT (Edgell, C. J., McDonald, C. C. & Graham, J. B. Permanent cell line expressing human factor VIII-related antigen established by hybridization. Proc. Natl. Acad. Sci. USA 80, 3734-3737 (1983)). Cells deficient in mtDNA (ρ^0 phenotype) were prepared as detailed in Weber, T. et al., (Mitochondria play a central role in apoptosis induced by α-tocopheryl succinate, an agent with anticancer activity. Comparison with receptor-mediated pro-apoptotic signaling. Biochemistry 42, 4277-4291 (2003)). Acquisition of the ρ^0 phenotype was confirmed by lack of expression by the cells of the mtDNA-encoded cytochrome c oxidase subunit II (COXII not shown). Chinese hamster lung fibroblasts deficient in complex I (B10 cells) (See, B. B. et al. Molecular remedy of complex I defects: rotenone-insensitive internal NADH-quinone oxidoreductase of Saccharomyces cerevisiae mitochondria restores the NADH oxidase activity of complex I-deficient mammalian cells. Proc. Natl. Acad. Sci. USA 95, 9167-9171 (1998)) and complex II (CybL^−/−; B9 cells) (Oostveen, F. G., Au, H. C., Meijer, P. J. & Scheffler, I. E. A Chinese hamster mutant cell line with a defect in the integral membrane protein CII-3 of complex II of the mitochondrial electron transport chain. J. Biol. Chem. 270: 26104-26108 (1995)) as well as the parental cells (B1 cells) (Oostveen, F. G., Au, H. C., Meijer, P. J. & Scheffler, I. E. A Chinese hamster mutant cell line with a defect in the integral membrane protein CII-3 of complex II of the mitochondrial electron transport chain. J. Biol. Chem. 270: 26104-26108 (1995)) were grown in DMEM with 10% FCS, antibiotics, 10 mg/ml glucose and non-essential aminoacids.
(§2) Toxicity of α-TOS, VE11S (“VES”), MitoVE3S, MitoVE5S, MitoVE7S, MitoVE9S, MitoVE11S (“MitoVES”), MitoVE11AE (“MitoVEAE”), MitoVE11F (“MitoVEF”), MitoVE11M (“MitoVEM”), and VES4TPP towards cancer cells was assessed on the basis of IC50, as detailed in Turanek, J., et al. ((2008). Liposomal formulation of vitamin E analogs as an efficient and selective anti-cancer treatment. Clin. Cancer Res. (submitted)). […]

H9c2 = assay: MTT viability assay (IC50); format: cell-based, rat; settings: H9c2, ~60% confluency
Excerpt: as §1, §2

[1] = cited from earlier work
[2] = tested on: MS cells derived from MCF7 cells; assay: Drug induced cell death in mammosphere cells (FIG. 8); format: cell-based, human; settings: for sensitivity of MS cells to drug induced cell death: 5 μM MitoVES, 50 μM α-TOS or 10 μM parthenolide
Protocol: Adherent MCF7 cells and the corresponding mammosphere cells (MS) were cultured and assessed for morphological changes by microscopy (A) and for expression levels of markers as indicators of “sternness” by RT-PCR (B) and flow cytometry (C), including the expression of CD44 and CD24 (D). The adherent MCF7 cells (E) and the MS cells (F) were treated with 5 μM MitoVES, 50 μM α-TOS or 10 μM parthenolide and assessed for their sensitivity to drug induced cell death. […] Adherent MCF7 cells (I) and MS cells (J) were treated for 3 h with α-TOS (50 μM) or MitoVES homologues containing different lengths in the aliphatic side chain (5 μM each, either 11, 7 or 5 carbon chain in length) and the treated cells assessed for production of reactive oxygen species (ROS) by flow cytometry.

In the case of `Cc1c(C)c2c(c(C)c1OC(=O)CCC(=O)O)CC[C@@](C)(CCC[C@H](C)CCC[C@H](C)CCCC(C)C)O2` [α-TOS, α-tocopheryl succinate, reference compound], the IC50 (HL-1) is given as greater than 100 µM, the IC50 (H9c2) is given as greater than 100 µM and the “fold higher percentage in the protonated form” value ([1]; acidic pH of 6.2-6.4 of the tumour interstitium versus neutral pH) is given as 10-15 fold. The fraction deprotonated ([1]; at neutral pH) was roughly 98%, the pKa [1] was less than 6 and the pKa ([1]; listed as α-tocopheryl succinate) was 5.6. The “sensitivity of MS cells to drug induced cell death” value [2] was “resistant”.

With `Cc1c(C)c2c(c(C)c1OC(=O)CCC(=O)[O-])CCC(C)(CCCCCCCCCCC[P+](c1ccccc1)(c1ccccc1)c1ccccc1)O2` (centres unmarked) [MitoVE11S] the IC50 (HL-1) was 48 ± 6 µM, the IC50 (H9c2) was 54 ± 8 µM and the “sensitivity of MS cells to drug induced cell death” value [2] was “very sensitive”. For the same compound, the “apoptosis of MS cells” value ([2]; within 5-6 h after adding the drug) was greater than 90%.
